Results reported in US9040713B2, “Methods of managing blood sugar levels and compositions related thereto” (EMORY UNIVERSITY, priority 2010, dated 2015).

Legend:
[1] = target: IR (Homo sapiens, UniProt P06213); assay: IR phosphorylation in transfected HEK293 cells (Western blot); format: cell-based; design: expressed in transfected cells; host or cells: HEK293; conditions: 4524-E7 5 μM, insulin 100 nM
Method: Cells were lysed, and IR phosphorylations were tested by ELISA. The IR phosphorylation activities of the tested compounds were expressed as a percentage of the vehicle. […] The cell lysates were analyzed by immunoblotting with various indicated antibodies. The phosphorylated IR was immunoprecipitated using PY20 and analyzed by immunoblotting with anti-IR13 antibody. […] The phosphorylation of each receptor was determined by Western blot using specific antibodies as indicated. […] Then the cells were lysated and the transfected receptor fused to His tag were pulled down with Ni+ beads, followed by western blot against anti-p-Tyr and anti-His. The cell lysates were tested with anti-p-Akt and anti-Akt.
Whether 4524-E7 can activate other receptors of RTK family was tested. […] To further explore the specificity, several hybrid recombinant RTKs were generated by replacing IGFR and EGFR's extracellular domain (ECD) with IR's ECD. Moreover, IGFR's intracellular domain (ICD) was substituted with IR's ICD, and the His-tagged receptors were transfected into CHO cells and treated with 4524-E7 for 30 min.

[2] = system: EGFR, ErbB2, EphAl, FGFR1, VEGFR1, cMet, TrkB, PDGFRa, RET; assay: RTK kinase profile screen assay; format: biochemical
[3] = system: C57B5L/6J mice; assay: Hyperinsulinemic-euglycemic clamp; format: in vivo, mouse; conditions: 5 mg/kg oral 1 h before clamp
Method: (A) 4524-E7 provokes IR phosphorylation in various tissues of mice. Three-month-old C57BL/6J mice were starved for 12 h and then dosed with vehicle (0.5% methylcellulose) or 4524-E7 (20 mg/kg). Cell lysates from liver, muscle, and WAT were prepared at 3, 4, and 5 h after drug administration and analyzed by immunoblotting. (B) Basal and insulin-stimulated hepatic glucose production rates were measured by hyperinsulinemic-euglycemic clamp. […] (C) Hypoglycemic effect of 4524-E7 in C57BL/6J mice. C57BL/6J mice were starved for 12 h and then orally administrated with vehicle (0.5% methylcellulose) or 4524-E7 (5 mg/kg). Blood glucose was monitored at different time points as indicated (n=8, *: P<0.05, two-way ANOVA). (D) Hypoglycemic effect in db/db mice. db/db mice were starved for 12 h and then orally injected with vehicle (0.5% methylcellulose) or 4524-E7 (5 mg/kg). Blood glucose was monitored at different time points as indicated (n=5, *: P<0.05, two-way ANOVA). (E) Glucose tolerance test in ob/ob mice. The mice were starved for 12 hours and then orally administrated with vehicle or 4524-E7 (5 mg/kg). A bonus of glucose (2 gm/kg) was injected intraperitoneally 1 hour later. Blood glucose was then measured at 30 min intervals (n=13, *: P<0.05; **: P<0.01, two-way ANOVA).
C57B5L/6J mice were fasted for 12 h. […] In vivo hepatic glucose output was then determined by hyperinsulinemic-euglycemic clamp.

[4] = target: T1, GST-IRTK (Homo sapiens, UniProt P06213); assay: UV-absorption spectra titration; format: binding
T1 construct: GST-tagged IRTK (GST-IRTK, a.a. 1011-1382); purchased Invitrogen
T1 sequence (P06213 1011-1382): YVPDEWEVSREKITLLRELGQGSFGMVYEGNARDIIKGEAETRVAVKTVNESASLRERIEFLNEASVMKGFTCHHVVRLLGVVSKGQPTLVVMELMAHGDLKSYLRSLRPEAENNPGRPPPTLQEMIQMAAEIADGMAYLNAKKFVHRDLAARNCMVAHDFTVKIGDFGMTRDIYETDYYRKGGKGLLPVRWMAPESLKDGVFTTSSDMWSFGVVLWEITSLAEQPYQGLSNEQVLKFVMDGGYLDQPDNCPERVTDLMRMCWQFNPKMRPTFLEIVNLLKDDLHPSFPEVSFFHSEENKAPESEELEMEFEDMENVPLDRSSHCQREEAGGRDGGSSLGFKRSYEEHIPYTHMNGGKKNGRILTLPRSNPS
Method: UV-Vis absorption for protein binding was obtained using the Cary 300 UV-Visible spectrophotometer (Varian Inc., Palo Alto, Calif.) equipped with 1.0 cm quartz cells. The spectra were scanned from 200 to 800 nm in Tris buffer (0.01M Tris, 0.05M NaCl, 10 mM MgCl2, pH 7.8). During the spectrophotometric titrations, protein (GST or GST-IRTK) was added to a cell containing a constant amount of compound. The absorbances at 602 nm were recorded (data were read for three times and mean value was obtain by averaging) and the obtained data were processed with KaleidaGraph (Synergy Software). Repeated measurements were done for all the samples and no significant differences were observed (The reproducibility errors is less than 5%). Binding results from the UV titration experiments were fit with a one site interaction model: r=K*Cfree/(1+K*Cfree) Where r represents the moles of bound compound per mole of protein, K is macroscopic binding constants, and Cfree is the free compound concentration in equilibrium with the complex. Insulin Competition Assay
Several small molecules bind to the intracellular kinase domain of IR (IRTK) and provoke its activation. DDN might also interact with the IRTK to activate IR. To test this possibility, an UV-absorption spectra analysis was performed using recombinant IRTK. […]

Sequence of IR (P06213 28-1382): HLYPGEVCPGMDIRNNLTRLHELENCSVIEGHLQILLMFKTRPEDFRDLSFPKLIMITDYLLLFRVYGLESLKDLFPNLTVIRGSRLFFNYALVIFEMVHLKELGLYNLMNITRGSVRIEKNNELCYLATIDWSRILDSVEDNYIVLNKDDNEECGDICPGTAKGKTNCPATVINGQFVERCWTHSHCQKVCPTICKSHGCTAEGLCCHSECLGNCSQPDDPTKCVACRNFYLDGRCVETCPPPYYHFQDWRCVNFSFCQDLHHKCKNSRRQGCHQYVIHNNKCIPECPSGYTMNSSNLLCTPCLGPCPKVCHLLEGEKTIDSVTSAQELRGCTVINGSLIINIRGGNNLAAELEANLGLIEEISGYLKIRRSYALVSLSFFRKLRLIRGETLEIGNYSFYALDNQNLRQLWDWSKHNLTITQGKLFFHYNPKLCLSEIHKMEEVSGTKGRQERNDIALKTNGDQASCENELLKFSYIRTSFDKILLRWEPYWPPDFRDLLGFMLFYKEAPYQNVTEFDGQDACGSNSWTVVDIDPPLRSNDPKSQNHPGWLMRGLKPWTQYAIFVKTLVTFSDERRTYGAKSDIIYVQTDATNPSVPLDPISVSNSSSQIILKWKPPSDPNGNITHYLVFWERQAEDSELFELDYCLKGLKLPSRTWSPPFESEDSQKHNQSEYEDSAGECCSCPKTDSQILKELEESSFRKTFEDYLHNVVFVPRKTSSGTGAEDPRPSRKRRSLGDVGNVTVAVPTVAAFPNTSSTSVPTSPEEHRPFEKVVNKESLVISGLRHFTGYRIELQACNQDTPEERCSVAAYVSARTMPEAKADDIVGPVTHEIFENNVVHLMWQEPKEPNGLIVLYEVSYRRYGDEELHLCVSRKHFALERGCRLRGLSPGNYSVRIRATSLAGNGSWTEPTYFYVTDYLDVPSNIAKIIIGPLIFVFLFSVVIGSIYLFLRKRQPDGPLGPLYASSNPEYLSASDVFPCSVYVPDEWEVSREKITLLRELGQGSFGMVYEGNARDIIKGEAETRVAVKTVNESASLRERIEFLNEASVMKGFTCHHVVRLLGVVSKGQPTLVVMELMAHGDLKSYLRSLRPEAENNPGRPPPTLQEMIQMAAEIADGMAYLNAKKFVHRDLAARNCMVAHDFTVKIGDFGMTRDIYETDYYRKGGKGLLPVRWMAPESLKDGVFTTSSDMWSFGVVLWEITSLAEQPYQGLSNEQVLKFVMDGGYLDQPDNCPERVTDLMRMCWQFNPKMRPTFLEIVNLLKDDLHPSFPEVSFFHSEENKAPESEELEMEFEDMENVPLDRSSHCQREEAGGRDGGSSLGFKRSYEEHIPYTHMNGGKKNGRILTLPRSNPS

SMILES | IR activation [1] | activation of tested RTKs [2] | insulin-stimulated suppression of hepatic glucose output [3] | Kd ([4]; UV titration, absorbance at 602 nm, read-out: binding constant Kd) | peak absorption at 560 and 602 nm in presence of GST-IRTK ([4]; spectra 200 to 800 nm)
O=C1c2ccccc2C(=O)C2SC(Nc3ccc(Cl)cc3)=NC12 (centres unmarked) [4524-E7, 2-((4-chlorophenyl)amino)naphtho[2,3-d]thiazole-4,9(3aH,9aH)-dione] | selectively activated | none of the tested RTKs | potentiated the insulin actions in suppressing hepatic glucose output |  | 
CC(=O)Oc1ccc(OC(C)=O)c2c1C(=O)C(Cl)=C(Cl)C2=O [DDN, 5,8-diacetyloxy-2,3-dichloro-1,4-naphthoquinone] |  |  |  | ~3.27 µM | enhanced the peak absorption at 560 and 602 nm
